A word on the melting point: it is the temperature of the solid-liquid transition.

The source of these data is patent publication US20110118239A1, “PREPARATION AND ENANTIOMERIC SEPARATION OF 7-(3-PYRIDINYL)-1,7-DIAZASPIRO[4.4]NONANE AND NOVEL SALT FORMS OF THE RACEMATE AND ENANTIOMERS” (Targacept, Inc., priority 2008, published 2011).

Several values for one entry are separate records, joined by “and”; a condition that tells them apart may be missing. Equal values may be shown once. Where a name gives a salt, the structure may show the parent alone.

Data set [1] is described as follows: Dynamic vapor sorption (DVS) analysis. The data set is classed as physicochemical. The procedure: In a dynamic vapor sorption (DVS) apparatus, a sample of (R)-7-(3-pyridinyl)-1,7-diazaspiro[4.4]nonane mono-p-hydroxybenzoate (˜14.1 mg) was subjected to gradually increasing, followed by then gradually decreasing, humidity over a period of about 10 h (see details below). […] Given its relatively high melting point and crystalline nature, it is therefore a particularly good candidate for drug development.

The subject of another data set is A/J mice. Kind of data set: Depression model, tail suspension (TS). The settings on record: 20 mg/kg, 10 min test. The data set is classed as in vivo. As to the method: On the day of the test, A/J mice were brought to acclimate to the testing room for one hour. Eight animals were tested in each run. Following pretreatment with vehicle, desipramine (20 mg/kg) or Compound A, p-hydroxybenzoate (0.1, 0.3, and 1 mg/kg), a piece of transparent (Scotch) tape was attached to the tail of each mouse from about mid-tail with approximately 2 cm of tape past the end of the tail. The mice were then placed in the tail suspension chambers (white polyvinylchloride cubicles measuring 33×33×31.75 cm; Med Associates Inc., St Albans, Vt.). The mice were suspended from the hook of the TS force transducer via the tail tape. The force transducer transmitted the movements of the mouse to a recording device connected to a computer. Immobility time, struggle time, and intensity were automatically recorded for each min during the 10 min test period. Upon completion of the TS test, the mice were returned to their home cage and then to the animal colony. The TS chambers were cleaned between sessions. Data were analyzed by repeated measures and one-way analysis of variance (ANOVA) followed by Fisher PLSD post-hoc comparisons. An effect was considered significant if p<0.05.

Consider `O=C(O)CCC(=O)O.c1cncc(N2CCC3(CCCN3)C2)c1` (centres unmarked), for which the melting point was in the range of 131.5 to 133 °C. Still for that read-out and setting: the same measure for `Cl.Cl.c1cncc(N2CCC3(CCCN3)C2)c1` (centres unmarked): 242 to 244 °C; for `O.O=C(O)C(=O)O.O=C(O)C(=O)O.c1cncc(N2CCC3(CCCN3)C2)c1` (centres unmarked) (hydrate or solvate): 200 to 201.5 °C. `c1cncc(N2CCC3(CCCN3)C2)c1` (racemic) (as salt: hydrochloride) [Compound C, 7-(3-pyridinyl)-1,7-diazaspiro[4.4]nonane]: the melting point is 227 to 232 °C and 227 to 233 °C.

Take `O=C(O)c1ccc(O)cc1.c1cncc(N2CC[C@]3(CCCN3)C2)c1` [(R)-7-(3-pyridinyl)-1,7-diazaspiro[4.4]nonane mono-p-hydroxybenzoate]: the stability to humidity result in data set [1] (DVS) is “particularly stable to high humidity”. Further, the “weight gain during the course of the DVS study” value in data set [1] (increasing then decreasing humidity over about 10 h) is reported as “less than 0.2 wt %”. Consider `CNCCCN1c2ccccc2CCc2ccccc21` [desipramine, reference compound], for which, in the data set with A/J mice, the “struggle intensity compared to saline” value is on record as “increased struggle intensity” and the “total time immobile compared to saline” value is recorded as “decreased total time immobile”.
